Where “and” joins values, the source holds several entries; their conditions need not be identical. Identical values can stand only once. Records with an inconclusive call do not appear.

The test system of the assay is CD8F1 mice, subcutaneous mammary adenocarcinoma, T/C%. Description: NCI In Vivo Anticancer Drug Screen. Data for tumor model Mammary Adenocarcinoma CD8F1 (subcutaneous) in CD8F1. The settings on record: higher = larger tumour. The method, boiled down:
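Tumor-bearing mice, transplantable model; readout survival or tumor size; value = treated (T) / vehicle control (C).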

Setting [1] is: endpoint: median tumor weight (est.), dose: 12.5 mg/kg/injection, schedule: Q07DX005 (ip), vehicle: saline with Tween-80.
Where [2] appears, read: endpoint: median tumor weight (est.), dose: 25.0 mg/kg/injection, schedule: Q07DX005 (ip), vehicle: saline with Tween-80.
[3] abbreviates: endpoint: median tumor weight change, dose: 125.0 mg/kg/injection, schedule: Q01DX001 (ip), vehicle: saline.
[4] abbreviates: endpoint: median tumor weight change, dose: 500.0 mg/kg/injection, schedule: Q01DX001 (ip), vehicle: saline.
The mark [5] stands for this setting: endpoint: median tumor weight change, dose: 1000.0 mg/kg/injection, schedule: Q01DX001 (ip), vehicle: saline.
[6] abbreviates: endpoint: median tumor weight change, dose: 250.0 mg/kg/injection, schedule: Q01DX001 (ip), vehicle: saline.
The mark [7] stands for this setting: endpoint: median tumor weight change, dose: 125.0 mg/kg/injection, schedule: Q01DX001 (ip), vehicle: saline with Tween-80.
Where [8] appears, read: endpoint: median tumor weight change, dose: 500.0 mg/kg/injection, schedule: Q01DX001 (ip), vehicle: saline with Tween-80.
Where [9] appears, read: endpoint: median tumor weight change, dose: 1000.0 mg/kg/injection, schedule: Q01DX001 (ip), vehicle: saline with Tween-80.

For the compound `CCCCCCCCCCCCCCCCCC(=O)Nc1ccn(C2OC(CO)C(O)C2O)c(=O)n1` (centres undefined), the T/C is, setting by setting: under setting [1], 98 % of control; (endpoint: median tumor weight (est.), dose: 12.5 mg/kg/injection, schedule: Q07DX005 (ip), vehicle: suspension in saline) 93 % of control; under setting [2], 52 % of control; (endpoint: median tumor weight (est.), dose: 25.0 mg/kg/injection, schedule: Q07DX005 (ip), vehicle: suspension in saline) 27 % of control; (endpoint: median tumor weight (est.), dose: 50.0 mg/kg/injection, schedule: Q07DX005 (ip), vehicle: saline with Tween-80) 49 % of control; (endpoint: median tumor weight (est.), dose: 50.0 mg/kg/injection, schedule: Q07DX005 (ip), vehicle: suspension in saline) 45 % of control. Moreover, the T/C (endpoint: median tumor weight (est.), dose: 77.0 mg/kg/injection, schedule: Q07DX005 (ip), vehicle: saline with Tween-80) is 25 % of control; the T/C (endpoint: median tumor weight (est.), dose: 100.0 mg/kg/injection, schedule: Q07DX005 (ip), vehicle: saline with Tween-80) is 13 % of control; the T/C (endpoint: median tumor weight (est.), dose: 100.0 mg/kg/injection, schedule: Q07DX005 (ip), vehicle: suspension in saline) is 53 % of control; the T/C (endpoint: median tumor weight (est.), dose: 118.0 mg/kg/injection, schedule: Q07DX005 (ip), vehicle: saline with Tween-80) was 7 % of control.
As to `C/C(=N/NC(N)=S)c1ccc2ccccc2c1`, the T/C reads like this: (endpoint: median tumor weight (est.), dose: 3.12 mg/kg/injection, schedule: Q07DX005 (ip), vehicle: saline with Tween-80) 152 % of control; (endpoint: median tumor weight (est.), dose: 6.25 mg/kg/injection, schedule: Q07DX005 (ip), vehicle: saline with Tween-80) 95 % of control and 100 % of control; under setting [1], 69 % of control and 72 % of control.
With `ClCCCCCCCCCCc1ccccc1`, the T/C (endpoint: median tumor weight (est.), dose: 12.5 mg/kg/injection, schedule: Q07DX005 (ip), vehicle: Klucel (hydroxypropylcellulose) (HPC)) is 87 % of control; the T/C (endpoint: median tumor weight (est.), dose: 25.0 mg/kg/injection, schedule: Q07DX005 (ip), vehicle: Klucel (hydroxypropylcellulose) (HPC)) is 88 % of control; the T/C (endpoint: median tumor weight (est.), dose: 100.0 mg/kg/injection, schedule: Q07DX005 (ip), vehicle: Klucel (hydroxypropylcellulose) (HPC)) was 71 % of control; the T/C (endpoint: median tumor weight (est.), dose: 200.0 mg/kg/injection, schedule: Q07DX005 (ip), vehicle: Klucel (hydroxypropylcellulose) (HPC)) was 71 % of control; the T/C (endpoint: median tumor weight (est.), dose: 400.0 mg/kg/injection, schedule: Q07DX005 (ip), vehicle: Klucel (hydroxypropylcellulose) (HPC)) was 72 % of control.
Take `C[Si](C)(C)O/C=C1/CCOC1=O`: the T/C reads like this: under setting [3], 96 % of control; under setting [4], 82 % of control; under setting [5], 72 % of control.
Take `C#C[C@]1(O)CC[C@H]2[C@@H]3CCc4cc(O)ccc4[C@H]3CC[C@@]21C`: the T/C is 92 % of control (endpoint: median tumor weight change, dose: 12.5 mg/kg/injection, schedule: Q01DX001 (ip), vehicle: Klucel (hydroxypropylcellulose) (HPC)); 78 % of control (endpoint: median tumor weight change, dose: 25.0 mg/kg/injection, schedule: Q01DX001 (ip), vehicle: Klucel (hydroxypropylcellulose) (HPC)); 75 % of control (endpoint: median tumor weight change, dose: 50.0 mg/kg/injection, schedule: Q01DX001 (ip), vehicle: Klucel (hydroxypropylcellulose) (HPC)); 60 % of control (endpoint: median tumor weight change, dose: 56.0 mg/kg/injection, schedule: Q01DX001 (ip), vehicle: Klucel (hydroxypropylcellulose) (HPC)); 63 % of control (endpoint: median tumor weight change, dose: 100.0 mg/kg/injection, schedule: Q01DX001 (ip), vehicle: Klucel (hydroxypropylcellulose) (HPC)); 75 % of control (endpoint: median tumor weight change, dose: 112.0 mg/kg/injection, schedule: Q01DX001 (ip), vehicle: Klucel (hydroxypropylcellulose) (HPC)). The T/C runs as follows: (endpoint: median tumor weight change, dose: 200.0 mg/kg/injection, schedule: Q01DX001 (ip), vehicle: Klucel (hydroxypropylcellulose) (HPC)) 46 % of control; (endpoint: median tumor weight change, dose: 225.0 mg/kg/injection, schedule: Q01DX001 (ip), vehicle: Klucel (hydroxypropylcellulose) (HPC)) 66 % of control; (endpoint: median tumor weight change, dose: 400.0 mg/kg/injection, schedule: Q01DX001 (ip), vehicle: Klucel (hydroxypropylcellulose) (HPC)) 52 % of control; (endpoint: median tumor weight change, dose: 450.0 mg/kg/injection, schedule: Q01DX001 (ip), vehicle: Klucel (hydroxypropylcellulose) (HPC)) 101 % of control; (endpoint: median tumor weight change, dose: 450.0 mg/kg/injection, schedule: Q01DX001 (ip), vehicle: saline with Tween-80) 101 % of control.
`CCC(CC)COC(=O)c1ccccc1C(=O)OCC(CC)CC`: the T/C under setting [2] is 83 % of control; the T/C (endpoint: median tumor weight (est.), dose: 200.0 mg/kg/injection, schedule: Q07DX005 (ip), vehicle: saline with Tween-80) was 65 % of control; the T/C (endpoint: median tumor weight (est.), dose: 400.0 mg/kg/injection, schedule: Q07DX005 (ip), vehicle: saline with Tween-80) was 75 % of control; the T/C (endpoint: median tumor weight (est.), dose: 800.0 mg/kg/injection, schedule: Q07DX005 (ip), vehicle: saline with Tween-80) is 64 % of control.
`C=C(C)/C([O-])=N/[N+](C)(C)CC(O)CCCCCCCCCCCC` (centres undefined): the T/C by setting is: under setting [3], 63 % of control; under setting [6], 111 % of control.
As to `NC(=O)c1c[se]c(C2OC(CO)C(O)C2O)n1` (centres undefined), the T/C by setting is: (endpoint: median tumor weight change, dose: 50.0 mg/kg/injection, schedule: Q01DX001 (ip), vehicle: water) 124 % of control; (endpoint: median tumor weight change, dose: 75.0 mg/kg/injection, schedule: Q01DX001 (ip), vehicle: water) 45 % of control; (endpoint: median tumor weight change, dose: 100.0 mg/kg/injection, schedule: Q01DX001 (ip), vehicle: water) 83 % of control; (endpoint: median tumor weight change, dose: 150.0 mg/kg/injection, schedule: Q01DX001 (ip), vehicle: water) 73 % of control; (endpoint: median tumor weight change, dose: 200.0 mg/kg/injection, schedule: Q01DX001 (ip), vehicle: water) 89 % of control; (endpoint: median tumor weight change, dose: 300.0 mg/kg/injection, schedule: Q01DX001 (ip), vehicle: water) 47 % of control. Besides, the T/C (endpoint: median tumor weight change, dose: 400.0 mg/kg/injection, schedule: Q01DX001 (ip), vehicle: water) was 95 % of control; the T/C (endpoint: median tumor weight change, dose: 600.0 mg/kg/injection, schedule: Q01DX001 (ip), vehicle: water) is 43 % of control; the T/C (endpoint: median tumor weight change, dose: 1200.0 mg/kg/injection, schedule: Q01DX001 (ip), vehicle: water) was 50 % of control.
On to `O=C1NCCN1c1ncc([N+](=O)[O-])s1`, for which the T/C is, setting by setting: (endpoint: mean tumor weight, dose: 100.0 mg/kg/injection, schedule: Q07DX005 (ip), vehicle: saline) 121 % of control; (endpoint: mean tumor weight, dose: 200.0 mg/kg/injection, schedule: Q07DX005 (ip), vehicle: saline) 89 % of control; (endpoint: mean tumor weight, dose: 400.0 mg/kg/injection, schedule: Q07DX005 (ip), vehicle: saline) 101 % of control.
Turning to `C=C1C(=O)C2=CC1CCC(=O)C1(C)CCC(OC(C)=O)C(C)(C)C1CC2O` (centres undefined), the T/C by setting is: (endpoint: median tumor weight change, dose: 37.5 mg/kg/injection, schedule: Q01DX001 (ip), vehicle: Klucel (hydroxypropylcellulose) (HPC)) 83 % of control; (endpoint: median tumor weight change, dose: 75.0 mg/kg/injection, schedule: Q01DX001 (ip), vehicle: Klucel (hydroxypropylcellulose) (HPC)) 88 % of control; (endpoint: median tumor weight change, dose: 150.0 mg/kg/injection, schedule: Q01DX001 (ip), vehicle: Klucel (hydroxypropylcellulose) (HPC)) 30 % of control.
For `CC(C)C(N)C(=O)Nc1nncs1` (centres undefined), the T/C under setting [3] is 119 % of control, the T/C under setting [6] was 171 % of control, the T/C under setting [4] is 82 % of control and the T/C under setting [5] was 81 % of control.
For `CC(C#N)(C#N)N=Nc1ccc(Cl)cc1Cl`, the T/C was 161 % of control under setting [7], 115 % of control under setting [8] and 76 % of control under setting [9].
Regarding `CN=C(N)N/N=C(\C)c1ccc2c(c1)Cc1cc(/C(C)=N/NC(N)=NC)ccc1-2`, the T/C (endpoint: median tumor weight change, dose: 7.5 mg/kg/injection, schedule: Q01DX001 (ip), vehicle: saline with Tween-80) is 112 % of control and the T/C (endpoint: median tumor weight change, dose: 15.0 mg/kg/injection, schedule: Q01DX001 (ip), vehicle: saline with Tween-80) was 102 % of control.
Regarding `COc1cc(C(=O)N/N=C/c2cccc([N+](=O)[O-])c2)cc(OC)c1OC`, the T/C was 94 % of control under setting [7]; 60 % of control (endpoint: median tumor weight change, dose: 250.0 mg/kg/injection, schedule: Q01DX001 (ip), vehicle: saline with Tween-80); 108 % of control under setting [8]; 115 % of control under setting [9]; 119 % of control (endpoint: median tumor weight change, dose: 2000.0 mg/kg/injection, schedule: Q01DX001 (ip), vehicle: saline with Tween-80).
For the compound `Cc1ccc(NCCN(C)C)c2c(=O)c3cc(O)ccc3sc12`, the T/C runs as follows: (endpoint: median tumor weight change, dose: 250.0 mg/kg/injection, schedule: Q01DX001 (ip), vehicle: Klucel (hydroxypropylcellulose) (HPC)) -8 % of control and 15 % of control; (endpoint: median tumor weight change, dose: 500.0 mg/kg/injection, schedule: Q01DX001 (ip), vehicle: Klucel (hydroxypropylcellulose) (HPC)) -6 % of control.

For the origin of these results see PubChem BioAssay AID220 (DTP/NCI, 2004).
